A word on the EC50: it is the concentration that produces a half-maximal response. A word on the half-life: it is the time in which the quantity being followed falls by half. One may read the viability as a per cent measure of how many cells are alive, often set against a control.

These results are taken from patent US20260248800A1, “FERROPTOSIS INHIBITORS AND USES THEREOF” (UNIVERSITY OF OTTAWA, priority 2022, published 2026).

Structures are written as SMILES. Read-outs that look alike come from different tables or passages of the source. Marks after values point to notes of the source that are not given here. Bounds are passed on as bounds.

A short description of data set [1]: H-bond acidity (α2^H) of the RTA by 1H NMR. It is filed as physicochemical. The following applies: estimated from the 1H NMR chemical shift difference of the amine proton in DMSO-d6 and benzene-d6.
Data set [2] in a line: MeOAMVN-initiated co-autoxidation of STY-BODIPY and egg PC liposomes (FENIX). It is filed as biochemical. The following applies: for n (radical-trapping stoichiometry): MeOAMVN-initiated co-autoxidation of STY-BODIPY and egg PC liposomes.
Data set [3] relates to Pfa-1 mouse embryonic fibroblasts (MEFs). The experiment in a line: cells. Conditions: Fibroblast.
The conditions of data set [4]: at 37° C. in PhCl; literature; cited from earlier work.
Data set [5] is described as follows: Liver microsome stability assay. The following applies: pH 7.4. For orientation: Liver microsomes are vesicles of endoplasmic reticulum, rich in cytochrome P450 enzymes.
Data set [6] has as its system Pfa-1 mouse embryonic fibroblasts (MEFs).
The test system of a further data set is MEFs. Conditions: inhibition of RSL3-induced ferroptosis in MEFs; Shah et al., 2017; cited from earlier work.
The conditions of data set [7]: mouse, microsomes.
The conditions of data set [8]: inhibited autoxidation of styrene in chlorobenzene; cited from earlier work.
The conditions of data set [9]: in dilinoleoyl phosphatidylcholine (PC) liposomes; cited from earlier work.
[10] abbreviates: apparent inhibition rate constant, MeOAMVN-initiated autoxidation of egg PC liposomes, determined by absorbance (STY-BODIPY 10-20 μM, 565 nm).
Where [11] appears, read: 5 h, read-out: Pfa-1 MEF Ferroptosis EC50, RSL3-induced cell death (150 nM for 5 hours), AquaBluer.
The mark [12] stands for this setting: Table 6, from survival curve of RSL3 induced ferroptosis of pfa-1 MEFS.
The mark [13] stands for this setting: read-out: Pfa-1 MEF Ferroptosis EC50, RSL3-induced cell death (150 nM for 5 hours), AquaBluer.
The mark [14] stands for this setting: apparent inhibition rate constant, MeOAMVN-initiated autoxidation of egg PC liposomes, determined by fluorescence.
Setting [15] is: measured in MeOAMVN-initiated autoxidation of egg PC liposomes.

In the case of `c1ccc2c(c1)Nc1ccccc1S2` [Compound 2, phenothiazine, reference compound], the “α2^H” value in data set [1] is 0.38. Moreover, in [2], the “n (radical-trapping stoichiometry)” value was found to be 1.9 ± 0.1. For the same molecule, in data set [2] (setting [10]), the “kinh^lip” value was “(110 ± 20)^e 10^5 M^−1s^−1”. The EC50 in data set [3] (setting [11]) and in data set [3] (setting [12]) was 24 ± 1 nM in each case. Besides, the kinh in data set [4] is recorded as ~ 8×10^6 M^−1s^−1. In [5] (BALB/c, mouse, liver microsomes), the half-life at 10 μM is 11.5 min.

Take `Cc1ccc2c(c1)Oc1cc(C)ccc1N2` [Compound 35, 3,7-Dimethylphenoxazine]: the “α2^H” value in data set [1] was 0.41. The “kinh^lip” value in [2] (predicted from log kinh^0, α2^H and β2^H=0.69 using Eq. 4 (too reactive to be determined directly)) is reported as 1180 ^f 10^5 M^−1s^−1. For the same molecule, the “predicted increase in kinh^lip relative to PNX” value in [2] (predicted/estimated kinh^lip vs PNX) is recorded as 5.1 fold. Also, the EC50 in data set [6] (setting [13]) stood at 5.4 ± 0.2 nM; in [3] (setting [11]) it was 6 nM.

On to `O=[N+]([O-])c1ccc2c(c1)Sc1cc([N+](=O)[O-])ccc1N2` [Compound 29, 3,7-Dinitrophenothiazine, reference compound], for which the “α2^H” value in [1] was 0.62. The “kinh^lip” value in data set [2] (setting [14]) was “(0.41 ± 0.04) 10^5 M^−1s^−1”; in [2] (setting [15]), 400 M⁻¹ s⁻¹. Also, the EC50 was at least 1000 nM in data set [6] (setting [13]) and above 1000 nM in data set [3] (setting [11]). Moreover, the viability at 1000 µM in data set [3] (read-out: apparent cell viability) is around 50%.

On to `Clc1cccc(CN=C2Nc3ccccc3NC23CCNCC3)c1` [Lip-1, liproxstatin-1], for which the EC50 is 18 ± 1 nM in data set [6] (setting [12]), 18 nM in [6] (setting [13]) and 35 nM in the data set on MEFs. In addition, in [4], the kinh is 200000 M⁻¹ s⁻¹. Also, the t1/2 result in data set [5] (BALB/c mouse liver microsomes increased (1.0 mg/mL), 1 mM NADPH, 37° C., 10 μM compound (Verapamil 1 μM)) is “(133 ± 8.4) ^d min”.

As to `CCOC(=O)c1ccc(NC2CCCCC2)c(N)c1` [Fer-1, ferrostatin-1], the results for the EC50 (in data set [6] (setting [12]); in data set [6] (setting [13]); in the data set on MEFs) were 27 ± 2 nM, 27 nM and 45 nM, respectively. The same molecule yielded a t1/2 in data set [7] of 5.3 ± 0.1 min. Moreover, in [4], the kinh is 300000 M⁻¹ s⁻¹.

Regarding `c1ccc2c(c1)Nc1ccccc1O2` [Compound 1, phenoxazine, reference compound], the “α2^H” value in data set [1] was 0.44. In data set [2], the “n (radical-trapping stoichiometry)” value stood at 2.0 ± 0.1. For the same molecule, the entries for the “kinh^lip” value in [2] (setting [10]) and in data set [2] (setting [15]) were “(232 ± 23)^e 10^5 M^−1s^−1” and 220000 M⁻¹ s⁻¹, respectively. For the same molecule, the EC50 is 16 ± 1 nM in data set [3]; 16 nM in data set [3] (5 h, read-out: Pfa-1 MEF Ferroptosis EC50); 9 nM in the data set with MEFs. The kinh in data set [4] is listed as ~ 4×10^7 M^−1s^−1.

As for `FC(F)(F)c1ccc2c(c1)Nc1ccccc1O2` [Compound 6, 2-trifluoromethylphenoxazine], the “α2^H” value in data set [1] is recorded as 0.51. The “n (radical-trapping stoichiometry)” value in data set [2] came to 3.0 ± 0.1. In addition, the “kinh^lip” value in data set [2] (setting [14]) was “(75 ± 11) 10^5 M^−1s^−1”. Besides, the EC50 in [6] (setting [13]) is 8.8 ± 0.5 nM; in data set [3] (setting [11]), 9 nM.

For `Cc1c(C)c2c(c(C)c1O)CC[C@@](C)(CCC[C@H](C)CCC[C@H](C)CCCC(C)C)O2` [α-TOH, α-tocopherol], the results for the kinh in data set [8] and in data set [9] were 3e+06 M⁻¹ s⁻¹ and 6000 M⁻¹ s⁻¹, respectively.
